This is an account of results in US20240182531A1, “KV1.3 Blockers” (priority 2021, published 2024).

Where a SMILES comes first, the peptide text is derived from it. Bridges are numbered along the chain shown (N, C = ends). [ ]: non-standard residue; d: D form. Nle = CCCC[C@H](N)C(=O)O; Dab = NCC[C@H](N)C(=O)O; Dap = NC[C@H](N)C(=O)O

T1 sequence (P22001 whole entry): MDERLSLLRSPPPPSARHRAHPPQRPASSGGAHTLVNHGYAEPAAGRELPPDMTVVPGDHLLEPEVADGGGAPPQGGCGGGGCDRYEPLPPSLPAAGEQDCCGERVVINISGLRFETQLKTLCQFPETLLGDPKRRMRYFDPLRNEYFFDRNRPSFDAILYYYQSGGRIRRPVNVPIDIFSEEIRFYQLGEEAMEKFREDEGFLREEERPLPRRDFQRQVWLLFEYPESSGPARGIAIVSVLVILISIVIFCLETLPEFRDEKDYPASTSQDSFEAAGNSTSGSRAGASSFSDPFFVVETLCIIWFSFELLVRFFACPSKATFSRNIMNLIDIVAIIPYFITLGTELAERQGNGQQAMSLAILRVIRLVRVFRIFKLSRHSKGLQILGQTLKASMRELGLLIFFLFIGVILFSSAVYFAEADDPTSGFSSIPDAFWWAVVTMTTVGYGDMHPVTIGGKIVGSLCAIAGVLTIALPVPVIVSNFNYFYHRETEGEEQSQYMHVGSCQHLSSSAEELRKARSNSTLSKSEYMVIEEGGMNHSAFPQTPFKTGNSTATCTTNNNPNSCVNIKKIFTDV

The experiment has as its target T1, human Kv1.3 voltage-gated K+ channel (Homo sapiens, UniProt P22001).
T1 construct: host or cells: CHO-DUKX
Nature of the experiment: Kv1.3 blocker activity in FLIPR thallium assay. The class given is cell-based. As to the method: A human Kv1.3 voltage-gated K+ channel cell line was purchased from Perkin Elmer (#TDS-AX-010-C-1). The cell line is based on CHO-DUKX cells stably transfected with the human Kv1.3 voltage-gated K+ channel.
The cell line was grown in MEMα with nucleotides, GlutaMAX (Gibco #32571028), 10% Foetal Bovine Serum (FBS), 0.4 mg/ml Geneticin, 100 units/ml Penicillin, and 100 μg/ml Streptomycin and seeded at 10.000 cells/well in black poly-D-lysine-coated 96 well plates.
The FluxOR™ Potassium Ion Channel Assay (Invitrogen #F10016) was used to quantitate flux of thallium ions into the cells as a response to Kv1.3 activation with a stimulus buffer causes depolarization of the cell membrane, thereby generating a fluorescent signal, proportional to channel activity. The assay was performed as described by the assay kit manufacturer including a compound pre-incubation step (30 min, 37° C., 5% CO2) in assay buffer containing 0.02% W/v casein from bovine milk (Sigma #C4765) prior to cell membrane depolarization using a final stimuli buffer composition corresponding to 0.2× FluxOR™ chloride-free buffer, 5 mM K2SO4, 1 mM Tl2SO4. The fluorescence responses were recorded and quantified (maximum response at 50 s, 37° C.) using the FLIPR® Tetra High Throughput Screening System (Molecular Devices, Inc.).
IC50 can be regarded as a measure of potency of inhibition for the respective compound. The IC50 value is a measure of the concentration of an inhibitor required to achieve half of that compound's maximal inhibition of ion channel activity in a given assay.
A word on the IC50: it is the midpoint of a concentration-inhibition curve. A higher IC50 goes with weaker potency. `CCCC[C@H](NC(=O)[C@@H]1CCCN1)C(=O)N[C@@H](CCC(=O)O)C(=O)N[C@@H](CCCC)C(=O)N[C@@H](CCCNC(=N)N)C(=O)N[C@H]1CSSC[C@@H]2NC(=O)[C@H](CCCCN)NC(=O)CNC(=O)[C@H](Cc3ccccc3)NC(=O)[C@H]([C@@H](C)CC)NC(=O)[C@H](CO)NC(=O)CNC(=O)[C@H]([C@@H](C)CC)NC(=O)[C@H](C)NC(=O)[C@H](C)NC(=O)[C@H](CC(C)C)NC(=O)[C@@H]3CSSC[C@@H](C(=O)N[C@@H](Cc4ccc(O)cc4)C(=O)N4CCC[C@H]4C(=O)N[C@@H](CCCNC(=N)N)C(N)=O)NC(=O)[C@H](CCCCN)NC(=O)[C@H](CSSC[C@H](NC(=O)[C@H](CCC(=O)O)NC(=O)[C@H](C(C)C)NC(=O)[C@H](CO)NC(=O)[C@H](C)NC(=O)[C@H](CCN)NC1=O)C(=O)N[C@@H](C)C(=O)N[C@@H](CCC(N)=O)C(=O)N[C@@H](CO)C(=O)N3)NC(=O)[C@H](CCCCN)NC(=O)CNC(=O)[C@H](CC(N)=O)NC(=O)[C@H](CCCC)NC2=O` [compound 10] (H-P[Nle]E[Nle]RC[Dab]ASVECAQSCLAAIGSIFGKC[Nle]NGKCKCYPR-NH2; disulfide 6-27, 12-32, 16-34) gave an IC50 of 0.33 nM. To `CCCC[C@H](NC(=O)[C@@H]1CCCN1)C(=O)N[C@@H](CCC(=O)O)C(=O)N[C@@H](CCCC)C(=O)N[C@@H](CCCNC(=N)N)C(=O)N[C@H]1CSSC[C@@H]2NC(=O)[C@H](CCCCN)NC(=O)CNC(=O)[C@H](Cc3ccccc3)NC(=O)[C@H]([C@@H](C)CC)NC(=O)[C@H](CO)NC(=O)CNC(=O)[C@H]([C@@H](C)CC)NC(=O)[C@H](C)NC(=O)[C@H](C)NC(=O)[C@H](CC(C)C)NC(=O)[C@@H]3CSSC[C@@H](C(=O)N[C@@H](Cc4ccc(O)cc4)C(=O)N4CCC[C@H]4C(=O)N[C@@H](CCCNC(=N)N)C(=O)O)NC(=O)[C@H](CCCCN)NC(=O)[C@H](CSSC[C@H](NC(=O)[C@H](CCC(=O)O)NC(=O)[C@H](C(C)C)NC(=O)[C@H](CO)NC(=O)[C@H](C)NC(=O)[C@H](Cc4ccc(O)cc4)NC1=O)C(=O)N[C@@H](CCCCN)C(=O)N[C@@H](CCC(N)=O)C(=O)N[C@@H](CCCCN)C(=O)N3)NC(=O)[C@H](CCCCN)NC(=O)[C@H](CCCCN)NC(=O)[C@H](CC(N)=O)NC(=O)[C@H](CCCC)NC2=O` [compound 5] (H-P[Nle]E[Nle]RCYASVECKQKCLAAIGSIFGKC[Nle]NKKCKCYPR-OH; disulfide 6-27, 12-32, 16-34) belongs 0.18 nM; to `CCCC[C@H](NC(=O)[C@@H]1CCCN1)C(=O)N[C@@H](CCC(=O)O)C(=O)N[C@@H](CCCC)C(=O)N[C@@H](CCCNC(=N)N)C(=O)N[C@H]1CSSC[C@@H]2NC(=O)[C@H](CCCCN)NC(=O)CNC(=O)[C@H](Cc3ccccc3)NC(=O)[C@H]([C@@H](C)CC)NC(=O)[C@H](CO)NC(=O)CNC(=O)[C@H]([C@@H](C)CC)NC(=O)[C@H](C)NC(=O)[C@H](C)NC(=O)[C@H](CC(C)C)NC(=O)[C@@H]3CSSC[C@@H](C(=O)N[C@@H](Cc4ccc(O)cc4)C(=O)N4CCC[C@H]4C(=O)N[C@@H](CCCNC(=N)N)C(N)=O)NC(=O)[C@H](CCCCN)NC(=O)[C@H](CSSC[C@H](NC(=O)[C@H](CCC(=O)O)NC(=O)[C@H](C(C)C)NC(=O)[C@H](CO)NC(=O)[C@H](C)NC(=O)[C@H](CCCNC(=N)N)NC1=O)C(=O)N[C@@H](C)C(=O)N[C@@H](CCC(N)=O)C(=O)N[C@@H](CO)C(=O)N3)NC(=O)[C@H](CCCCN)NC(=O)CNC(=O)[C@H](CC(N)=O)NC(=O)[C@H](CCCC)NC2=O` [compound 11] (H-P[Nle]E[Nle]RCRASVECAQSCLAAIGSIFGKC[Nle]NGKCKCYPR-NH2; disulfide 6-27, 12-32, 16-34), 0.22 nM; to `CCCC[C@H](NC(=O)[C@@H]1CCCN1)C(=O)N[C@@H](CCC(=O)O)C(=O)N[C@@H](CCCC)C(=O)N[C@@H](CCCNC(=N)N)C(=O)N[C@H]1CSSC[C@@H]2NC(=O)[C@H](CCCCN)NC(=O)CNC(=O)[C@H](Cc3ccccc3)NC(=O)[C@H]([C@@H](C)CC)NC(=O)[C@H](CO)NC(=O)CNC(=O)[C@H]([C@@H](C)CC)NC(=O)[C@H](C)NC(=O)[C@H](C)NC(=O)[C@H](CC(C)C)NC(=O)[C@@H]3CSSC[C@@H](C(=O)N[C@@H](Cc4ccc(O)cc4)C(=O)N4CCC[C@H]4C(=O)N[C@@H](CCCNC(=N)N)C(=O)O)NC(=O)[C@H](CCCCN)NC(=O)[C@H](CSSC[C@H](NC(=O)[C@H](CCC(=O)O)NC(=O)[C@H](C(C)C)NC(=O)[C@H](CO)NC(=O)[C@H](C)NC(=O)[C@H](CN)NC1=O)C(=O)N[C@@H](CCCCN)C(=O)N[C@@H](CCC(N)=O)C(=O)N[C@@H](CCCCN)C(=O)N3)NC(=O)[C@H](CCCCN)NC(=O)[C@H](CCCCN)NC(=O)[C@H](CC(N)=O)NC(=O)[C@H](CCCC)NC2=O` [compound 7] (H-P[Nle]E[Nle]RC[Dap]ASVECKQKCLAAIGSIFGKC[Nle]NKKCKCYPR-OH; disulfide 6-27, 12-32, 16-34), 0.28 nM. Take `CCCC[C@H](NC(=O)[C@@H]1CCCN1)C(=O)N[C@@H](CCC(=O)O)C(=O)N[C@@H](CCCC)C(=O)N[C@@H](CCCNC(=N)N)C(=O)N[C@H]1CSSC[C@@H]2NC(=O)[C@H](CCCCN)NC(=O)CNC(=O)[C@H](Cc3ccccc3)NC(=O)[C@H]([C@@H](C)CC)NC(=O)[C@H](CO)NC(=O)CNC(=O)[C@H]([C@@H](C)CC)NC(=O)[C@H](C)NC(=O)[C@H](C)NC(=O)[C@H](CC(C)C)NC(=O)[C@@H]3CSSC[C@@H](C(=O)N[C@@H](Cc4ccc(O)cc4)C(=O)N4CCC[C@H]4C(=O)N[C@@H](CCCNC(=N)N)C(=O)O)NC(=O)[C@H](CCCCN)NC(=O)[C@H](CSSC[C@H](NC(=O)[C@H](CCC(=O)O)NC(=O)[C@H](C(C)C)NC(=O)[C@H](CO)NC(=O)[C@H](C)NC(=O)[C@H](CCN)NC1=O)C(=O)N[C@@H](C)C(=O)N[C@@H](CCC(N)=O)C(=O)N[C@@H](CO)C(=O)N3)NC(=O)[C@H](CCCCN)NC(=O)CNC(=O)[C@H](CC(N)=O)NC(=O)[C@H](CCCC)NC2=O` [compound 9] (H-P[Nle]E[Nle]RC[Dab]ASVECAQSCLAAIGSIFGKC[Nle]NGKCKCYPR-OH; disulfide 6-27, 12-32, 16-34): the 50% inhibitory concentration (IC50) was determined as 4.6 nM. To `CCCC[C@H](NC(=O)[C@@H]1CCCN1)C(=O)N[C@@H](CCC(=O)O)C(=O)N[C@@H](CCCC)C(=O)N[C@@H](CCCNC(=N)N)C(=O)N[C@H]1CSSC[C@@H]2NC(=O)[C@H](CCCCN)NC(=O)CNC(=O)[C@H](Cc3ccccc3)NC(=O)[C@H]([C@@H](C)CC)NC(=O)[C@H](CO)NC(=O)CNC(=O)[C@H]([C@@H](C)CC)NC(=O)[C@H](C)NC(=O)[C@H](C)NC(=O)[C@H](CC(C)C)NC(=O)[C@@H]3CSSC[C@@H](C(=O)N[C@@H](Cc4ccc(O)cc4)C(=O)N4CCC[C@H]4C(=O)N[C@@H](CCCNC(=N)N)C(=O)O)NC(=O)[C@H](CCCCN)NC(=O)[C@H](CSSC[C@H](NC(=O)[C@H](CCC(=O)O)NC(=O)[C@H](C(C)C)NC(=O)[C@H](CN)NC(=O)[C@H](C)NC(=O)[C@H](CO)NC1=O)C(=O)N[C@@H](CCCCN)C(=O)N[C@@H](CCC(N)=O)C(=O)N[C@@H](CCCCN)C(=O)N3)NC(=O)[C@H](CCCCN)NC(=O)[C@H](CCCCN)NC(=O)[C@H](CC(N)=O)NC(=O)[C@H](CCCC)NC2=O` [compound 8] (H-P[Nle]E[Nle]RCSA[Dap]VECKQKCLAAIGSIFGKC[Nle]NKKCKCYPR-OH; disulfide 6-27, 12-32, 16-34) belongs 0.26 nM; to `CCCC[C@H](NC(=O)[C@@H]1CCCN1)C(=O)N[C@@H](CCC(=O)O)C(=O)N[C@@H](CCCC)C(=O)N[C@@H](CCCNC(=N)N)C(=O)N[C@H]1CSSC[C@@H]2NC(=O)[C@H](CCCCN)NC(=O)CNC(=O)[C@H](Cc3ccccc3)NC(=O)[C@H]([C@@H](C)CC)NC(=O)[C@H](CO)NC(=O)CNC(=O)[C@H]([C@@H](C)CC)NC(=O)[C@H](C)NC(=O)[C@H](C)NC(=O)[C@H](CC(C)C)NC(=O)[C@@H]3CSSC[C@@H](C(=O)N[C@@H](Cc4ccc(O)cc4)C(=O)N4CCC[C@H]4C(=O)N[C@@H](CCCNC(=N)N)C(N)=O)NC(=O)[C@H](CCCCN)NC(=O)[C@H](CSSC[C@H](NC(=O)[C@H](CCC(=O)O)NC(=O)[C@H](CCCNC(=N)N)NC(=O)[C@H](CO)NC(=O)[C@H](C)NC(=O)[C@H](CO)NC1=O)C(=O)N[C@@H](C)C(=O)N[C@@H](CCC(N)=O)C(=O)N[C@@H](CO)C(=O)N3)NC(=O)[C@H](CCCCN)NC(=O)CNC(=O)[C@H](CC(N)=O)NC(=O)[C@H](CCCC)NC2=O` [compound 12] (H-P[Nle]E[Nle]RCSASRECAQSCLAAIGSIFGKC[Nle]NGKCKCYPR-NH2; disulfide 6-27, 12-32, 16-34), 0.45 nM.
